Test results taken from article PMC10349829, “Functional characterization of the transient receptor potential melastatin 2 (TRPM2) cation channel from Nematostella vectensis reconstituted into lipid bilayer” (Scientific Reports, 2023).
Where two headings read alike, the source gives them in different places.

Target: T1, nvTRPM2 (transient receptor potential melastatin 2) (Nematostella vectensis, UniProt A7T1N0)
T1 construct: gene TRPM2; purified and reconstituted into planar lipid bilayers
Assay: single-channel recording of purified channel in planar lipid bilayers (activation)
Assay type: biochemical

T1 sequence (A7T1N0 whole entry): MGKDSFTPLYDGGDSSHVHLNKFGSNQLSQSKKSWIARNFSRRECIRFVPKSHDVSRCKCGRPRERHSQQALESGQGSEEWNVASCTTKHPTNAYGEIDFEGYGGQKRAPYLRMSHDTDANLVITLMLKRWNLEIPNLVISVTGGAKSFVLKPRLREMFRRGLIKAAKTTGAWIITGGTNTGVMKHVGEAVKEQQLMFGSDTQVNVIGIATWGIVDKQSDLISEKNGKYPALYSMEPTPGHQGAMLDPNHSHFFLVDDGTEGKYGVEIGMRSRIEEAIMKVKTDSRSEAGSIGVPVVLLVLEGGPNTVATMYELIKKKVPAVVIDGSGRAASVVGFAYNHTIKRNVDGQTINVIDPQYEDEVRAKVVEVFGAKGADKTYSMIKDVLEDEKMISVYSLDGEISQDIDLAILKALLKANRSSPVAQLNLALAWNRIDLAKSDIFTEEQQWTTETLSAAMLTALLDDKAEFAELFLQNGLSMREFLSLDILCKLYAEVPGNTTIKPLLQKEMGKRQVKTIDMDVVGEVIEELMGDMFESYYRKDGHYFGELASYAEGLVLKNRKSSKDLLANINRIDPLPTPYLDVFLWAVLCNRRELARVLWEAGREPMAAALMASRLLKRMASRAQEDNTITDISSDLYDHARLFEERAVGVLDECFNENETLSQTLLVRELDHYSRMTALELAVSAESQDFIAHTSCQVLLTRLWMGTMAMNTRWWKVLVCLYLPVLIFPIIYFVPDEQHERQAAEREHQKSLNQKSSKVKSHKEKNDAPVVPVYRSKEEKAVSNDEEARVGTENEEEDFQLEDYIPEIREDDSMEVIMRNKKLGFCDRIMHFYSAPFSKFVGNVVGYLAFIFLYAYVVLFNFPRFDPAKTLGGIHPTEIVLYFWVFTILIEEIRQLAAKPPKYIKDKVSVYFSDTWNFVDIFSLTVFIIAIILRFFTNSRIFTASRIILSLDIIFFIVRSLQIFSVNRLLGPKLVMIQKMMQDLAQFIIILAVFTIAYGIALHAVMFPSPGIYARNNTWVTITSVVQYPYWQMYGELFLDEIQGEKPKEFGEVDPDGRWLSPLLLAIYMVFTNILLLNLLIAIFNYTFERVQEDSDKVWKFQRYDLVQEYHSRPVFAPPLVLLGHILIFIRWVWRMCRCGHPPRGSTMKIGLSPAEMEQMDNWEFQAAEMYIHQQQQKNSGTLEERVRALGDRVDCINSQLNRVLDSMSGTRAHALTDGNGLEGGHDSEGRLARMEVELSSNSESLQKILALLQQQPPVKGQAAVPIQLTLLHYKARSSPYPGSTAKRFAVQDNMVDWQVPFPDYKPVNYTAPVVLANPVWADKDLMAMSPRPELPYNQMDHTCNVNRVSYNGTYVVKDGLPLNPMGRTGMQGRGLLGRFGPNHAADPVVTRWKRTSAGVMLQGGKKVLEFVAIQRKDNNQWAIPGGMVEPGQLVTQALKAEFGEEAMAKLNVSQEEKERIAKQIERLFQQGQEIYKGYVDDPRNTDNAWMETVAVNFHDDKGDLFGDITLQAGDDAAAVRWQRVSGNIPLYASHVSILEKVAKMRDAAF

SMILES	EC50 (read-out: EC50) [µM]	EC50 [µM]
Nc1ncnc2c1ncn2[C@@H]1O[C@H](COP(=O)(O)OP(=O)(O)OC[C@H]2OC(O)[C@H](O)[C@@H]2O)[C@@H](O)[C@H]1O (some centres unmarked) [ADPR]	~1	
Nc1ncnc2c1ncn2[C@@H]1O[C@H](COP(=O)(O)OP(=O)(O)OC[C@H]2OC(O)[C@H](O)[C@@H]2O)[C@@H](O)[C@H]1OP(=O)(O)O (some centres unmarked) [ADPRP]		~0.2
